Laboratory results taken from the NIST ThermoML archive (doi:10.1021/je060355j).

Legend:
[1] = xn = mol fraction of the nth substance listed; details: 101.32 kPa, Liquid
[2] = excess molar enthalpy (molar enthalpy of mixing); xn = mol fraction of the nth substance listed; details: 101.32 kPa, Liquid

CCOC=O [ethyl methanoate] + CCCCCC
Details	excess molar enthalpy [kcal/mol]	mass density [kg/m3]
[1], 291.15 K, x1 = 0.0495	–	667.8
[1], 291.15 K, x1 = 0.1025	–	675.4
[1], 291.15 K, x1 = 0.1497	–	682.8
[1], 291.15 K, x1 = 0.2049	–	692.1
[1], 291.15 K, x1 = 0.2531	–	700.4
[1], 291.15 K, x1 = 0.3068	–	710.6
[1], 291.15 K, x1 = 0.3937	–	728.2
[1], 291.15 K, x1 = 0.5016	–	753
[1], 291.15 K, x1 = 0.6039	–	780
[1], 291.15 K, x1 = 0.6996	–	808.2
[1], 291.15 K, x1 = 0.7504	–	824.6
[1], 291.15 K, x1 = 0.8029	–	842.4
[1], 291.15 K, x1 = 0.9016	–	880.3
[1], 291.15 K, x1 = 0.9065	–	882.4
[1], 291.15 K, x1 = 0.9522	–	901.9
[1], 291.15 K, x1 = 0.958	–	905
[1], 291.15 K, x1 = 1	–	924.7
[1], 298.15 K, x1 = 0.0777	–	665.63
[1], 298.15 K, x1 = 0.1291	–	673.25
[1], 298.15 K, x1 = 0.1715	–	679.95
[1], 298.15 K, x1 = 0.2501	–	693.44
[1], 298.15 K, x1 = 0.327	–	707.73
[1], 298.15 K, x1 = 0.4765	–	739.84
[1], 298.15 K, x1 = 0.5354	–	754.13
[1], 298.15 K, x1 = 0.5955	–	769.95
[1], 298.15 K, x1 = 0.6441	–	783.83
[1], 298.15 K, x1 = 0.6993	–	800.39
[1], 298.15 K, x1 = 0.7956	–	832.38
[1], 298.15 K, x1 = 0.884	–	865.42
[1], 298.15 K, x1 = 0.9643	–	898.98
[1], 298.15 K, x1 = 1	–	915.16
[1], 308.15 K, x1 = 0.0485	–	651.9
[1], 308.15 K, x1 = 0.1103	–	660.5
[1], 308.15 K, x1 = 0.1539	–	667.2
[1], 308.15 K, x1 = 0.2548	–	683.8
[1], 308.15 K, x1 = 0.3998	–	711.6
[1], 308.15 K, x1 = 0.4915	–	731.9
[1], 308.15 K, x1 = 0.5935	–	757.8
[1], 308.15 K, x1 = 0.6998	–	788
[1], 308.15 K, x1 = 0.7971	–	819.9
[1], 308.15 K, x1 = 0.9063	–	860.7
[1], 308.15 K, x1 = 0.9488	–	878.7
[1], 308.15 K, x1 = 1	–	902.07
[1], 318.15 K, x1 = 0.0476	–	642.18
[1], 318.15 K, x1 = 0.0875	–	647.84
[1], 318.15 K, x1 = 0.1044	–	649.54
[1], 318.15 K, x1 = 0.1471	–	655.88
[1], 318.15 K, x1 = 0.2199	–	667.46
[1], 318.15 K, x1 = 0.3041	–	681.93
[1], 318.15 K, x1 = 0.4061	–	701.97
[1], 318.15 K, x1 = 0.5293	–	729.7
[1], 318.15 K, x1 = 0.5869	–	744.1
[1], 318.15 K, x1 = 0.6984	–	775.52
[1], 318.15 K, x1 = 0.7476	–	790.78
[1], 318.15 K, x1 = 0.7932	–	805.56
[1], 318.15 K, x1 = 0.8873	–	840.19
[1], 318.15 K, x1 = 0.9692	–	874.21
[1], 318.15 K, x1 = 1	–	888.42
[2], 291.15 K, x1 = 0.092	0.107	–
[2], 291.15 K, x1 = 0.209	0.228	–
[2], 291.15 K, x1 = 0.3175	0.305	–
[2], 291.15 K, x1 = 0.4075	0.346	–
[2], 291.15 K, x1 = 0.4677	0.364	–
[2], 291.15 K, x1 = 0.5161	0.368	–
[2], 291.15 K, x1 = 0.5681	0.365	–
[2], 291.15 K, x1 = 0.6185	0.344	–
[2], 291.15 K, x1 = 0.6714	0.319	–
[2], 291.15 K, x1 = 0.7272	0.286	–
[2], 291.15 K, x1 = 0.7841	0.243	–
[2], 291.15 K, x1 = 0.843	0.188	–
[2], 291.15 K, x1 = 0.9022	0.127	–
[2], 291.15 K, x1 = 0.9514	0.0729	–
[2], 318.15 K, x1 = 0.1003	0.149	–
[2], 318.15 K, x1 = 0.1895	0.244	–
[2], 318.15 K, x1 = 0.2842	0.323	–
[2], 318.15 K, x1 = 0.3713	0.367	–
[2], 318.15 K, x1 = 0.4495	0.389	–
[2], 318.15 K, x1 = 0.5137	0.394	–
[2], 318.15 K, x1 = 0.5599	0.387	–
[2], 318.15 K, x1 = 0.5991	0.374	–
[2], 318.15 K, x1 = 0.6795	0.337	–
[2], 318.15 K, x1 = 0.7593	0.281	–
[2], 318.15 K, x1 = 0.8299	0.216	–
[2], 318.15 K, x1 = 0.8814	0.155	–
[2], 318.15 K, x1 = 0.9215	0.105	–
[2], 318.15 K, x1 = 0.966	0.051	–

CCCOC=O [propyl methanoate] + CCCCCC
Details	excess molar enthalpy [kcal/mol]	mass density [kg/m3]
[1], 291.15 K, x1 = 0.0544	–	670.1
[1], 291.15 K, x1 = 0.0893	–	676
[1], 291.15 K, x1 = 0.1509	–	687.4
[1], 291.15 K, x1 = 0.2001	–	696.5
[1], 291.15 K, x1 = 0.248	–	705.8
[1], 291.15 K, x1 = 0.2521	–	706.6
[1], 291.15 K, x1 = 0.3979	–	737.6
[1], 291.15 K, x1 = 0.5017	–	761.8
[1], 291.15 K, x1 = 0.6122	–	789.6
[1], 291.15 K, x1 = 0.6985	–	813.1
[1], 291.15 K, x1 = 0.7473	–	827
[1], 291.15 K, x1 = 0.8013	–	842.8
[1], 291.15 K, x1 = 0.8499	–	857.8
[1], 291.15 K, x1 = 0.9057	–	875.5
[1], 291.15 K, x1 = 0.9568	–	892.9
[1], 291.15 K, x1 = 1	–	907.8
[1], 298.15 K, x1 = 0.0787	–	668.91
[1], 298.15 K, x1 = 0.1478	–	681.52
[1], 298.15 K, x1 = 0.2237	–	695.63
[1], 298.15 K, x1 = 0.2941	–	709.36
[1], 298.15 K, x1 = 0.3597	–	722.93
[1], 298.15 K, x1 = 0.4297	–	738.37
[1], 298.15 K, x1 = 0.4878	–	751.68
[1], 298.15 K, x1 = 0.5453	–	765.36
[1], 298.15 K, x1 = 0.6019	–	779.74
[1], 298.15 K, x1 = 0.6599	–	794.74
[1], 298.15 K, x1 = 0.7154	–	810
[1], 298.15 K, x1 = 0.765	–	824.15
[1], 298.15 K, x1 = 0.812	–	838.34
[1], 298.15 K, x1 = 0.8656	–	854.66
[1], 298.15 K, x1 = 0.921	–	872.18
[1], 298.15 K, x1 = 0.9567	–	884.05
[1], 298.15 K, x1 = 1	–	899.08
[1], 308.15 K, x1 = 0.0693	–	657.5
[1], 308.15 K, x1 = 0.1125	–	665.1
[1], 308.15 K, x1 = 0.1993	–	680.76
[1], 308.15 K, x1 = 0.3036	–	701.12
[1], 308.15 K, x1 = 0.3975	–	720.81
[1], 308.15 K, x1 = 0.5069	–	745.56
[1], 308.15 K, x1 = 0.5902	–	765.82
[1], 308.15 K, x1 = 0.7035	–	795.66
[1], 308.15 K, x1 = 0.8034	–	824.55
[1], 308.15 K, x1 = 0.9002	–	854.72
[1], 308.15 K, x1 = 0.9482	–	870.44
[1], 308.15 K, x1 = 1	–	888.36
[1], 318.15 K, x1 = 0.0796	–	648.93
[1], 318.15 K, x1 = 0.1547	–	661.76
[1], 318.15 K, x1 = 0.2278	–	674.93
[1], 318.15 K, x1 = 0.2909	–	687.08
[1], 318.15 K, x1 = 0.3611	–	701.46
[1], 318.15 K, x1 = 0.4273	–	715.75
[1], 318.15 K, x1 = 0.487	–	729.26
[1], 318.15 K, x1 = 0.5747	–	750.24
[1], 318.15 K, x1 = 0.6031	–	757.34
[1], 318.15 K, x1 = 0.6617	–	772.47
[1], 318.15 K, x1 = 0.7118	–	785.91
[1], 318.15 K, x1 = 0.7661	–	801.18
[1], 318.15 K, x1 = 0.8123	–	814.59
[1], 318.15 K, x1 = 0.8602	–	829.22
[1], 318.15 K, x1 = 0.9109	–	845.53
[1], 318.15 K, x1 = 0.9581	–	860.97
[1], 318.15 K, x1 = 1	–	875.32
[2], 291.15 K, x1 = 0.0969	0.118	–
[2], 291.15 K, x1 = 0.186	0.187	–
[2], 291.15 K, x1 = 0.2656	0.235	–
[2], 291.15 K, x1 = 0.3316	0.264	–
[2], 291.15 K, x1 = 0.3921	0.282	–
[2], 291.15 K, x1 = 0.4458	0.289	–
[2], 291.15 K, x1 = 0.4941	0.29	–
[2], 291.15 K, x1 = 0.5356	0.287	–
[2], 291.15 K, x1 = 0.5758	0.274	–
[2], 291.15 K, x1 = 0.6321	0.258	–
[2], 291.15 K, x1 = 0.6905	0.23	–
[2], 291.15 K, x1 = 0.7533	0.195	–
[2], 291.15 K, x1 = 0.8171	0.154	–
[2], 291.15 K, x1 = 0.885	0.0993	–
[2], 291.15 K, x1 = 0.9453	0.0458	–
[2], 318.15 K, x1 = 0.0848	0.113	–
[2], 318.15 K, x1 = 0.1889	0.202	–
[2], 318.15 K, x1 = 0.2934	0.268	–
[2], 318.15 K, x1 = 0.3854	0.305	–
[2], 318.15 K, x1 = 0.4624	0.32	–
[2], 318.15 K, x1 = 0.521	0.32	–
[2], 318.15 K, x1 = 0.5945	0.309	–
[2], 318.15 K, x1 = 0.6631	0.284	–
[2], 318.15 K, x1 = 0.7368	0.245	–
[2], 318.15 K, x1 = 0.8154	0.19	–
[2], 318.15 K, x1 = 0.8906	0.124	–
[2], 318.15 K, x1 = 0.9523	0.0594	–
